Experimental data: patent US20160122320A1, “USEFUL COMBINATIONS OF MONOBACTAM ANTIBIOTICS WITH BETA-LACTAMASE INHIBITORS” (Basilea Pharmaceutica AG, priority 2005, published 2016)

Experiments:
Assay in all cases: MIC, NCCLS broth microdilution
Assay type in all cases: cell-based
[1] = tested on: Enterobacter aerogenes Zayakosky; settings: Enterobacter aerogenes Zayakosky 5
Procedure: Antimicrobial activity of the compounds and of their combinations was determined against a selection of organisms according to the standard procedures described by the National Committee for Clinical Laboratory Standards (National Committee for Clinical Laboratory. Standards (2000). Methods for Dilution Antimicrobial Susceptibility Tests for Bacteria That Grow Aerobically-Fifth Edition: Approved Standard M7-A5. NCCLS, Wayne, Pa., USA).
In all cases the final concentration of DMSO incubated with the bacteria is less than or equal to 1%. […] Plates were incubated overnight at an appropriate temperature (30° C. or 37° C.) and optical densities assessed by eye. The MIC value is defined as the lowest compound concentration completely inhibiting visible growth of the test organism. When combinations between compounds of formula I with compounds of formula II and are evaluated the compounds of formula I are tested in dilution series as described above while the compounds of formula II and III-XIII were present in all wells at a constant concentration of 4 μg/mL each.

Acinetobacter sp. J2 = settings: Acinetobacter baumannii J2
[2] = tested on: Pseudomonas aeruginosa MK1184
[3] = tested on: Acinetobacter baumannii J51
Method in brief: (§1)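 Growth inhibition read by eye after overnight incubation (30° C. or 37° C.) defines the MIC, using NCCLS M7-A5 broth microdilution with ≤1% DMSO. When combinations were tested, only the formula I compound was titrated and each partner was fixed at 4 μg/mL.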

[4] = tested on: Pseudomonas aeruginosa 1973E
Method in brief: as §1

Enterobacter cloacae P99 = tested on: Enterobacter cloacae P99
[5] = tested on: Klebsiella pneumoniae CF104
Serratia marcescens S6 = tested on: Serratia marcescens S6
[6] = tested on: Stenotrophomonas malthophilia 1AC736; settings: Stenotrophomonas maltophilia 1AC736
[7] = with clavulanate (clavulanic acid)

With `CC1(C)[C@H](NC(=O)/C(=N\OCc2cc(=O)c(O)cn2O)c2csc(N)n2)C(=O)N1OS(=O)(=O)O` [Compound 26, (3S)-3-{(2Z)-2-(2-amino(1,3-thiazol-4-yl))-3-[(1,5-dihydroxy-4-oxo(2-hydropyridyl))methoxy]-3-azaprop-2-enoylamino}-4,4-dimethyl-2-oxoazetidinyl hydroxysulfonate] the MIC of antibiotic ([1]; antibiotic alone, no inhibitor) was 16 µg/mL, the “MIC of antibiotic at fixed inhibitor concentration of 4 mg/L” value ([1]; with 102 and clavulanate) was 4 µg/mL and the “MIC of antibiotic at fixed inhibitor concentration of 4 mg/L” value ([1]; with 102 only) was 8 µg/mL. For the same compound, the “MIC of antibiotic at fixed inhibitor concentration of 4 mg/L” value ([1]; with 324 and clavulanate) was 4 µg/mL, the “MIC of antibiotic at fixed inhibitor concentration of 4 mg/L” value ([1]; with 324 only) was 4 µg/mL and the “MIC of antibiotic at fixed inhibitor concentration of 4 mg/L” value ([1]; with 501) was 16 µg/mL. For the same compound, the “MIC of antibiotic at fixed inhibitor concentration of 4 mg/L” value ([1]; with BRL427158) was 0.5 µg/mL, the “MIC of antibiotic at fixed inhibitor concentration of 4 mg/L” value ([1]; with clavulanic acid) was 8 µg/mL and the “MIC of antibiotic at fixed inhibitor concentration of 4 mg/L” value ([1]; with sulbactam) was 16 µg/mL. The “MIC of antibiotic at fixed inhibitor concentration of 4 mg/L” value ([1]; with tazobactam) was 16 µg/mL, the MIC of antibiotic (Acinetobacter sp. J2; antibiotic alone, no inhibitor) was 4 µg/mL and the “MIC of antibiotic at fixed inhibitor concentration of 4 mg/L” value (Acinetobacter sp. J2; with 102 and clavulanate) was 4 µg/mL. The “MIC of antibiotic at fixed inhibitor concentration of 4 mg/L” value (Acinetobacter sp. J2; with 102 and sulbactam) was 2 µg/mL, the “MIC of antibiotic at fixed inhibitor concentration of 4 mg/L” value (Acinetobacter sp. J2; with 102 only) was 4 µg/mL and the “MIC of antibiotic at fixed inhibitor concentration of 4 mg/L” value (Acinetobacter sp. J2; with 324 and clavulanate) was 4 µg/mL. The “MIC of antibiotic at fixed inhibitor concentration of 4 mg/L” value (Acinetobacter sp. J2; with 324 and sulbactam) was 2 µg/mL, the “MIC of antibiotic at fixed inhibitor concentration of 4 mg/L” value (Acinetobacter sp. J2; with 324 only) was 4 µg/mL and the “MIC of antibiotic at fixed inhibitor concentration of 4 mg/L” value (Acinetobacter sp. J2; with 501) was 0.5 µg/mL. For the same compound, the “MIC of antibiotic at fixed inhibitor concentration of 4 mg/L” value (Acinetobacter sp. J2; with BRL427158) was 0.5 µg/mL, the “MIC of antibiotic at fixed inhibitor concentration of 4 mg/L” value (Acinetobacter sp. J2; [7]) was over 32 µg/mL and the “MIC of antibiotic at fixed inhibitor concentration of 4 mg/L” value (Acinetobacter sp. J2; with sulbactam) was 2 µg/mL. For the same compound, the “MIC of antibiotic at fixed inhibitor concentration of 4 mg/L” value (Acinetobacter sp. J2; with tazobactam) was 4 µg/mL, the MIC of antibiotic ([2]; antibiotic alone, no inhibitor) was 2 µg/mL and the “MIC of antibiotic at fixed inhibitor concentration of 4 mg/L” value ([2]; with 102 and clavulanate) was 2 µg/mL. The “MIC of antibiotic at fixed inhibitor concentration of 4 mg/L” value ([2]; with 102 and sulbactam) was 2 µg/mL, the “MIC of antibiotic at fixed inhibitor concentration of 4 mg/L” value ([2]; with 102 only) was 2 µg/mL and the “MIC of antibiotic at fixed inhibitor concentration of 4 mg/L” value ([2]; with 324 and clavulanate) was 2 µg/mL. The “MIC of antibiotic at fixed inhibitor concentration of 4 mg/L” value ([2]; with 324 and sulbactam) was 2 µg/mL, the “MIC of antibiotic at fixed inhibitor concentration of 4 mg/L” value ([2]; with 324 only) was 4 µg/mL and the “MIC of antibiotic at fixed inhibitor concentration of 4 mg/L” value ([2]; with 501) was 2 µg/mL. For the same compound, the “MIC of antibiotic at fixed inhibitor concentration of 4 mg/L” value ([2]; with BRL427158) was 2 µg/mL, the “MIC of antibiotic at fixed inhibitor concentration of 4 mg/L” value [2, 7] was 4 µg/mL and the “MIC of antibiotic at fixed inhibitor concentration of 4 mg/L” value ([2]; with sulbactam) was 4 µg/mL. For the same compound, the “MIC of antibiotic at fixed inhibitor concentration of 4 mg/L” value ([2]; with tazobactam) was 4 µg/mL, the MIC of antibiotic ([3]; antibiotic alone, no inhibitor) was 4 µg/mL and the “MIC of antibiotic at fixed inhibitor concentration of 4 mg/L” value ([3]; with 102 and clavulanate) was 4 µg/mL. The “MIC of antibiotic at fixed inhibitor concentration of 4 mg/L” value ([3]; with 102 only) was 2 µg/mL, the “MIC of antibiotic at fixed inhibitor concentration of 4 mg/L” value ([3]; with 324 and clavulanate) was 2 µg/mL and the “MIC of antibiotic at fixed inhibitor concentration of 4 mg/L” value ([3]; with 324 only) was 2 µg/mL. For the same compound, the “MIC of antibiotic at fixed inhibitor concentration of 4 mg/L” value ([3]; with 501) was 1 µg/mL, the “MIC of antibiotic at fixed inhibitor concentration of 4 mg/L” value ([3]; with BRL427158) was 32 µg/mL and the “MIC of antibiotic at fixed inhibitor concentration of 4 mg/L” value ([3]; with clavulanic acid) was 1 µg/mL. For the same compound, the “MIC of antibiotic at fixed inhibitor concentration of 4 mg/L” value ([3]; with sulbactam) was 2 µg/mL, the “MIC of antibiotic at fixed inhibitor concentration of 4 mg/L” value ([3]; with tazobactam) was 4 µg/mL and the MIC of antibiotic ([4]; antibiotic alone, no inhibitor) was 16 µg/mL. The “MIC of antibiotic at fixed inhibitor concentration of 4 mg/L” value ([4]; with 102 and clavulanate) was 2 µg/mL, the “MIC of antibiotic at fixed inhibitor concentration of 4 mg/L” value ([4]; with 102 and sulbactam) was 4 µg/mL and the “MIC of antibiotic at fixed inhibitor concentration of 4 mg/L” value ([4]; with 102 only) was 2 µg/mL. The “MIC of antibiotic at fixed inhibitor concentration of 4 mg/L” value ([4]; with 324 and clavulanate) was 2 µg/mL, the “MIC of antibiotic at fixed inhibitor concentration of 4 mg/L” value ([4]; with 324 and sulbactam) was 2 µg/mL and the “MIC of antibiotic at fixed inhibitor concentration of 4 mg/L” value ([4]; with 324 only) was 4 µg/mL. For the same compound, the “MIC of antibiotic at fixed inhibitor concentration of 4 mg/L” value ([4]; with 501) was 2 µg/mL, the “MIC of antibiotic at fixed inhibitor concentration of 4 mg/L” value ([4]; with BRL427158) was 2 µg/mL and the “MIC of antibiotic at fixed inhibitor concentration of 4 mg/L” value [4, 7] was 2 µg/mL. For the same compound, the “MIC of antibiotic at fixed inhibitor concentration of 4 mg/L” value ([4]; with sulbactam) was 2 µg/mL, the “MIC of antibiotic at fixed inhibitor concentration of 4 mg/L” value ([4]; with tazobactam) was 2 µg/mL and the MIC of antibiotic (Enterobacter cloacae P99; antibiotic alone, no inhibitor) was 16 µg/mL. For the same compound, the “MIC of antibiotic at fixed inhibitor concentration of 4 mg/L” value (Enterobacter cloacae P99; with 102 and clavulanate) was 2 µg/mL, the “MIC of antibiotic at fixed inhibitor concentration of 4 mg/L” value (Enterobacter cloacae P99; with 102 and sulbactam) was 2 µg/mL and the “MIC of antibiotic at fixed inhibitor concentration of 4 mg/L” value (Enterobacter cloacae P99; with 102 only) was 1 µg/mL. The “MIC of antibiotic at fixed inhibitor concentration of 4 mg/L” value (Enterobacter cloacae P99; with 324 and clavulanate) was 1 µg/mL, the “MIC of antibiotic at fixed inhibitor concentration of 4 mg/L” value (Enterobacter cloacae P99; with 324 and sulbactam) was 2 µg/mL and the “MIC of antibiotic at fixed inhibitor concentration of 4 mg/L” value (Enterobacter cloacae P99; with 324 only) was 2 µg/mL. The “MIC of antibiotic at fixed inhibitor concentration of 4 mg/L” value (Enterobacter cloacae P99; with 501) was 2 µg/mL, the “MIC of antibiotic at fixed inhibitor concentration of 4 mg/L” value (Enterobacter cloacae P99; with BRL427158) was 2 µg/mL and the “MIC of antibiotic at fixed inhibitor concentration of 4 mg/L” value (Enterobacter cloacae P99; [7]) was 8 µg/mL. The “MIC of antibiotic at fixed inhibitor concentration of 4 mg/L” value (Enterobacter cloacae P99; with sulbactam) was 8 µg/mL, the “MIC of antibiotic at fixed inhibitor concentration of 4 mg/L” value (Enterobacter cloacae P99; with tazobactam) was 16 µg/mL and the MIC of antibiotic ([5]; antibiotic alone, no inhibitor) was 32 µg/mL. For the same compound, the “MIC of antibiotic at fixed inhibitor concentration of 4 mg/L” value ([5]; with 102 and clavulanate) was 0.25 µg/mL, the “MIC of antibiotic at fixed inhibitor concentration of 4 mg/L” value ([5]; with 102 and sulbactam) was 1 µg/mL and the “MIC of antibiotic at fixed inhibitor concentration of 4 mg/L” value ([5]; with 102 only) was 16 µg/mL. The “MIC of antibiotic at fixed inhibitor concentration of 4 mg/L” value ([5]; with 324 and clavulanate) was 0.25 µg/mL, the “MIC of antibiotic at fixed inhibitor concentration of 4 mg/L” value ([5]; with 324 and sulbactam) was 1 µg/mL and the “MIC of antibiotic at fixed inhibitor concentration of 4 mg/L” value ([5]; with 324 only) was 16 µg/mL. For the same compound, the “MIC of antibiotic at fixed inhibitor concentration of 4 mg/L” value ([5]; with 501) was 1 µg/mL, the “MIC of antibiotic at fixed inhibitor concentration of 4 mg/L” value ([5]; with BRL427158) was 0.125 µg/mL and the “MIC of antibiotic at fixed inhibitor concentration of 4 mg/L” value [5, 7] was 0.5 µg/mL. For the same compound, the “MIC of antibiotic at fixed inhibitor concentration of 4 mg/L” value ([5]; with sulbactam) was 1 µg/mL, the “MIC of antibiotic at fixed inhibitor concentration of 4 mg/L” value ([5]; with tazobactam) was 1 µg/mL and the MIC of antibiotic (Serratia marcescens S6; antibiotic alone, no inhibitor) was under 0.06 µg/mL. The “MIC of antibiotic at fixed inhibitor concentration of 4 mg/L” value (Serratia marcescens S6; with 102 and clavulanate) was “≦0.06 mg/L”, the “MIC of antibiotic at fixed inhibitor concentration of 4 mg/L” value (Serratia marcescens S6; with 102 and sulbactam) was under 0.06 µg/mL and the “MIC of antibiotic at fixed inhibitor concentration of 4 mg/L” value (Serratia marcescens S6; with 102 only) was “≦0.06 mg/L”. For the same compound, the “MIC of antibiotic at fixed inhibitor concentration of 4 mg/L” value (Serratia marcescens S6; with 324 and clavulanate) was under 0.06 µg/mL, the “MIC of antibiotic at fixed inhibitor concentration of 4 mg/L” value (Serratia marcescens S6; with 324 and sulbactam) was under 0.06 µg/mL and the “MIC of antibiotic at fixed inhibitor concentration of 4 mg/L” value (Serratia marcescens S6; with 324 only) was “≦0.06 mg/L”. The “MIC of antibiotic at fixed inhibitor concentration of 4 mg/L” value (Serratia marcescens S6; with 501) was “≦0.06 mg/L”, the “MIC of antibiotic at fixed inhibitor concentration of 4 mg/L” value (Serratia marcescens S6; with BRL427158) was “≦0.06 mg/L” and the “MIC of antibiotic at fixed inhibitor concentration of 4 mg/L” value (Serratia marcescens S6; [7]) was “≦0.06 mg/L”. For the same compound, the “MIC of antibiotic at fixed inhibitor concentration of 4 mg/L” value (Serratia marcescens S6; with sulbactam) was “≦0.06 mg/L”, the “MIC of antibiotic at fixed inhibitor concentration of 4 mg/L” value (Serratia marcescens S6; with tazobactam) was “≦0.06 mg/L” and the MIC of antibiotic ([6]; antibiotic alone, no inhibitor) was under 0.06 µg/mL. For the same compound, the “MIC of antibiotic at fixed inhibitor concentration of 4 mg/L” value ([6]; with 102 and clavulanate) was 0.25 µg/mL, the “MIC of antibiotic at fixed inhibitor concentration of 4 mg/L” value ([6]; with 102 and sulbactam) was 0.25 µg/mL and the “MIC of antibiotic at fixed inhibitor concentration of 4 mg/L” value ([6]; with 102 only) was 0.25 µg/mL. For the same compound, the “MIC of antibiotic at fixed inhibitor concentration of 4 mg/L” value ([6]; with 324 and clavulanate) was 0.25 µg/mL, the “MIC of antibiotic at fixed inhibitor concentration of 4 mg/L” value ([6]; with 324 and sulbactam) was 0.25 µg/mL and the “MIC of antibiotic at fixed inhibitor concentration of 4 mg/L” value ([6]; with 324 only) was 0.25 µg/mL. For the same compound, the “MIC of antibiotic at fixed inhibitor concentration of 4 mg/L” value ([6]; with 501) was 0.125 µg/mL, the “MIC of antibiotic at fixed inhibitor concentration of 4 mg/L” value ([6]; with BRL427158) was 0.125 µg/mL and the “MIC of antibiotic at fixed inhibitor concentration of 4 mg/L” value [6, 7] was “≦0.06 mg/L”. The “MIC of antibiotic at fixed inhibitor concentration of 4 mg/L” value ([6]; with sulbactam) was “≦0.06 mg/L” and the “MIC of antibiotic at fixed inhibitor concentration of 4 mg/L” value ([6]; with tazobactam) was “≦0.06 mg/L”.
